The source of these data is patent US9682047B2, “Augmentation of oncology immunotherapies by pterostilbene containing compositions” (THERAPEUTIC SOLUTIONS INTERNATIONAL, INC., priority 2015, dated 2017).

For series [1] the following is noted: in vivo; cited from earlier work.
For series [2] the following is noted: cited from earlier work.
The next series deals with IFN-gamma. Nature of the series: Mitogen (Concanavalin A) induced IFN-gamma production by splenocyte mononuclear cells of treated mice, ELISA. Type of series: in vivo. The following applies: splenocytes of B16-bearing mice treated as in Example 3, Concanavalin A 5 μg/mL, saline control about 200 ng/mL, FIG. 2. As to the method:
FIG. 2 illustrates the stimulation of mitogen induced IFN-gamma production by pterostilbene in mice. Mice were treated as described in FIG. 1 (from left to right: saline; 25 μg/kg pterostilbene; 500 IU/mouse IL-2; and a combination of IL-2 and pterostilbene at the indicated concentrations). Mononuclear cells were obtained and plated in 96-well plates and treated with Concanavalin A at 5 μg/mL. IFN-gamma was assessed by ELISA. The y-axis is expressed as ng/mL.
Mice from Example 3 where euthanized by cervical dislocation and spleens were excised in a sterile manner. Splenocyte mononuclear cells were obtained by hypotonic lysis and washed 3 times in PBS. Mononuclear cells were plated in 96 well plates and treated with Concanavalin A at 5 μg/mL. Interferon gamma was assessed by ELISA and expressed as ng/mL. […] In contrast, mononuclear cells of mice treated with pterostilbene alone expressed about 900 ng/mL IFN-gamma, and mononuclear cells of mice treated with the combination of pterostilbene and IL-2 expressed about 1500 ng/mL IFN-gamma. As disclosed herein, enhanced expression of IFN-gamma elicits an immune response.

The conditions of series [3]: in vivo; cited from earlier work. This is another data set of the same source.

Turning to `COc1cc(/C=C/c2ccc(O)cc2)cc(OC)c1` [pterostilbene, trans-3,5-dimethoxy-4′-hydroxy-trans-stilbene], the half-life entry in series [1] is “approximately 2 hr”. Besides, the “solubility in aqueous solution” value in series [2] is “sparingly soluble”. Further, the “IFN-gamma expressed by mononuclear cells” value in the series on IFN-gamma is recorded as “about 900 ng/mL”.

As to `Oc1ccc(/C=C/c2cc(O)cc(O)c2)cc1` [t-RESV, trans-3,5,4′-trihydroxystilbene], the systemic bioavailability result in series [3] is “low”.
